Assay results: patent US6221870A, “Ergoline derivatives and their use as somatostatin receptor antagonists” (Novartis AG, priority 1997, dated 2001)

What was measured:
mice = assay: Matched Pairs Situation test in mice; type: in vivo, mouse; conditions: for lowering of aggressive behavior (Matched Pairs Situation test), standard drugs: 3-30 mg/kg s.c.; for potency compared with the compound of example 1, Matched Pairs Situation test: standard drugs at 3-30 mg/kg s.c.
[1] = tested on: neurotransmitter receptors; assay: activity for a wide range of neurotransmitter receptors; type: binding
Description: (§1) For all above indications the preferred compound is the compound of example 1 below.

[2] = target: T1, native rat sst1 receptors (Rattus norvegicus, UniProt P28646); assay: affinity for native rat sst1 receptors (radioligand binding); conditions: read-out: pIC50, affinity for native rat sst1 receptors (converted)
T1 construct: native rat sst1 receptors
T1 sequence (P28646 whole entry): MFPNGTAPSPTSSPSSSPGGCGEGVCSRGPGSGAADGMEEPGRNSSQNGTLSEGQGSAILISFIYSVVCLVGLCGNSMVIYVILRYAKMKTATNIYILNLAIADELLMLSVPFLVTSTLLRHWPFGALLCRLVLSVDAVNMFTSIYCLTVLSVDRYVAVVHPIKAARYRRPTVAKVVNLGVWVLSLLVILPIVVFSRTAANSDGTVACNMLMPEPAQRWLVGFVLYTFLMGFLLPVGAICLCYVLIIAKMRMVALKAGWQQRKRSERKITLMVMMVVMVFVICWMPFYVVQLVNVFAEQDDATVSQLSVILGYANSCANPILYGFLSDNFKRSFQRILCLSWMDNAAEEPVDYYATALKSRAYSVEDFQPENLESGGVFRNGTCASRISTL
Description: (§2) In particular the agents of the invention bind to somatostatin receptors. More particularly they are selective antagonists at Somatostatin sst1 receptors, previously called SSTR-1 receptors (see Hoyer et al., TIPS, 1995, 16; 86-88), as determined in radioligand binding and second messenger studies [see for example K Kaupmann et al., FEBS LETTERS 1993, 331: 53-59].
as §1

[3] = target: T2, native human sst1 receptors (Homo sapiens, UniProt P30872); assay: affinity for native human sst1 receptors (radioligand binding); conditions: read-out: pIC50, affinity for native human sst1 receptors (converted)
T2 construct: native and recombinant human sst1 receptors
T2 sequence (P30872 whole entry): as the sequence (P28646 whole entry) above, with P8S, T11S, S16P, G20S, V25G, C26G, S32A, S45A, A385T, S389T counted along it
Description: as §2, §1

[4] = target: T3, recombinant human sst1 receptors (Homo sapiens, UniProt P30872); assay: affinity for recombinant human sst1 receptors (radioligand binding); conditions: read-out: pIC50, affinity for recombinant human sst1 receptors (converted)
T3 construct: expressed in transfected cells
T3 sequence (P30872 whole entry): as the sequence (P28646 whole entry) above, with P8S, T11S, S16P, G20S, V25G, C26G, S32A, S45A, A385T, S389T counted along it
Description: as §2, §1

intruder mouse = intruder mouse test; type: in vivo; conditions: for potency compared with the compound of example 1, intruder mouse test: standard drugs at 3-30 mg/kg s.c.
[5] = known drawback; cited from earlier work

CN1C[C@H](C(=O)N2CCN(c3cccc(=O)n3C)CC2)C[C@@H]2c3cccc4[nH]c(Br)c(c34)C[C@H]21 [Example 1, [5R, 8R, 10R]-2-Bromo-9,10-dihydro-lysergic-acid-4-(1-methyl-1H-pyrid-6-on-2-yl)-piperazine-amide]
aggressive behavior in the Matched Pairs Situation test (mice; 3-30 mg/kg p.o.): clearly lowers aggressive behavior
activity for a wide range of neurotransmitter receptors [1]: without significant activity
IC50 [2]: 0.2 nM
IC50 [3]: 1 nM
IC50 [4]: 1.58 nM
social withdrawal in the intruder mouse test (intruder mouse; 3-30 mg/kg p.o.): reverses social withdrawal

NC(=O)N1c2ccccc2C=Cc2ccccc21 [carbamazepine]
lowering of aggressive behavior (Matched Pairs Situation test), standard drugs (mice): These effects are also observed
potency compared with the compound of example 1, Matched Pairs Situation test (mice): less potent
therapeutic window [5]: narrow therapeutic window
potency compared with the compound of example 1, intruder mouse test (intruder mouse): less potent

lithium
lowering of aggressive behavior (Matched Pairs Situation test), standard drugs (mice): These effects are also observed
potency compared with the compound of example 1, Matched Pairs Situation test (mice): less potent
therapeutic window [5]: narrow therapeutic window
potency compared with the compound of example 1, intruder mouse test (intruder mouse): less potent
